Source: ChEMBL document CHEMBL6127034, “Design, synthesis and biological evaluation of a novel PAK1 degrader for the treatment of triple negative breast cancer” (Bioorg Med Chem, 2024)

Key:
[1] = tested on: MDA-MB-231; assay: Antiproliferative activity against human MDA-MB-231 cells incubated for 48 hrs by MTT assay; type: functional, cell-based; conditions: MDA-MB-231, 48 h
[2] = tested on: MDA-MB-231; assay: Induction of apoptosis in human MDA-MB-231 cells assessed as early apoptotic cells at 2.5 to 10 uM incubated for 24 hrs by Annexin V-FITC/PI staining based flow cytometry (reference value: 1.70 %); type: functional; conditions: dose 2.5-10 µM

`Cc1ncsc1-c1ccc([C@H](C)NC(=O)[C@@H]2C[C@@H](O)CN2C(=O)[C@@H](NC(=O)CCc2cn(CCCCCCCn3c(=O)c(-c4ccc(Cl)cc4Cl)cc4cnc(NC5CC5)nc43)nn2)C(C)(C)C)cc1` gave an IC50 [1] of 1270 nM and an Activity [2] of 11.7%.
